The target in series [1] is T1, Kv11.1 hERG cardiac ion channel (Homo sapiens, UniProt Q12809).
T1 construct: expressed in transfected cells; host or cells: HEK293 (human embryonic kidney cells), stably transfected
As to the kind of experiment: Kv11.1 (hERG) ion channel activity (patch clamp assay). It is filed as cell-based. Particulars: HEK293 transfected with hERG. The procedure:
Method for the detection and characterisation of test substances which interfere with the Kv11.1 (hERG) channel: Kv11.1 (hERG, human ether a-go-go related gene) is a potassium channel which plays a central role for repolarisation of the cells in the ventricular cardiomyocytes.
The patch-clamp measurement was carried out at room temperature in whole-cell configuration on human embryonic kidney cells (HEK293) which have been transfected in a stable manner with the hERG gene.
The whole-cell configurations were carried out using an automated patch clamp device (Patchliner™, Nanion Technologies, Munich). […]
The cells were clamped to a holding potential of −80 mV. […] DMSO (vehicle control, 0.1% of DMSO) was then applied, and the control current was recorded for 3 min. The test substance was subsequently added twice in the same concentration, and the potassium current was measured for 3.5 min in each case.
If the measurement result of a test substance at an initial concentration of 10 μM was smaller than (−)50% effect (threshold value) (for example (−)60% effect), the test substance was, in order to determine a dose/action relationship, added cumulatively in increasing concentration, where each concentration was measured for 5 min.
The reference substance used was the Kv11.1 (hERG) ion channel blocker quinidine. […] For the calculation, the current was evaluated for the respective final trace. […]
A general note: Block of hERG is tested as a sign of cardiac risk.

The subject of series [2] is CYP1A2, CYP2C8, CYP2C9, CYP2C19, CYP2D6, CYP3A4. As to the kind of experiment: Cytochrome P-450 enzymes (CYP) inhibition, P450-Glo. It is filed as in vitro ADME. The note with it: human. The procedure:
In the human organism, drug substances are converted to water-soluble compounds by enzyme systems to facilitate their excretion. These enzyme systems include microsomal cytochrome P-450 enzymes, CYPs for short. The assay is designed to identify whether a compound may be a strong inhibitor for defined CYP isoforms. This involves the use of recombinant CYP isoforms and their reductase obtained by overexpression in insect cells infected with baculovirus. The CYP reaction is performed through […] of the CYP isoform being tested along with a luminometric CYP substrate under NADPH-regenerating conditions. The luminometric P450-Glo™ substrates are derivatives of beetle luciferin ((4S)-4,5-dihydro-2-(6-hydroxybenzothiazolyl)-4-thiazolecarboxylic acid or D-luciferin), a substrate of firefly luciferase from beetles. […] This allows enzyme activity to be quantified rapidly through the luminosity. […] The following commercially available screening systems/assays are used: P450-Glo™ CYP1A2 Screening System (Promega Corporation; V9770); P450-Glo™ CYP2C8 Assay (Promega Corporation; V8782); P450-Glo™ CYP2C9 Screening System (Promega Corporation; V9790); P450-Glo™ CYP2C19 Screening System (Promega Corporation; V9880); P450-Glo™ CYP2D6 Screening System (Promega Corporation; […]); P450-Glo™ CYP3A4 Screening System (Luciferin-PPXE) (Promega Corporation; V9910).

For series [3], the system named is xenografts of the human squamous cell head and neck model FaDu. Kind of series: FaDu SCCHN tumor model, combination with irradiation. It counts as in vivo, NMRI nu/nu mice. The note with it: oral 10 or 25 mg/kg 30 min before each IR fraction; 6×5 days, 2 Gy. The protocol:
One of the control groups was treated with vehicle only. The other control group was treated with IR only at 30 fractions IR of 2 Gy in a 5 days on/2 days off schedule and over a period of 6 weeks.

Molecules are shown by their SMILES. Entries after “also recorded” stand apart in the source; their conditions may differ.

T1 sequence (Q12809 whole entry): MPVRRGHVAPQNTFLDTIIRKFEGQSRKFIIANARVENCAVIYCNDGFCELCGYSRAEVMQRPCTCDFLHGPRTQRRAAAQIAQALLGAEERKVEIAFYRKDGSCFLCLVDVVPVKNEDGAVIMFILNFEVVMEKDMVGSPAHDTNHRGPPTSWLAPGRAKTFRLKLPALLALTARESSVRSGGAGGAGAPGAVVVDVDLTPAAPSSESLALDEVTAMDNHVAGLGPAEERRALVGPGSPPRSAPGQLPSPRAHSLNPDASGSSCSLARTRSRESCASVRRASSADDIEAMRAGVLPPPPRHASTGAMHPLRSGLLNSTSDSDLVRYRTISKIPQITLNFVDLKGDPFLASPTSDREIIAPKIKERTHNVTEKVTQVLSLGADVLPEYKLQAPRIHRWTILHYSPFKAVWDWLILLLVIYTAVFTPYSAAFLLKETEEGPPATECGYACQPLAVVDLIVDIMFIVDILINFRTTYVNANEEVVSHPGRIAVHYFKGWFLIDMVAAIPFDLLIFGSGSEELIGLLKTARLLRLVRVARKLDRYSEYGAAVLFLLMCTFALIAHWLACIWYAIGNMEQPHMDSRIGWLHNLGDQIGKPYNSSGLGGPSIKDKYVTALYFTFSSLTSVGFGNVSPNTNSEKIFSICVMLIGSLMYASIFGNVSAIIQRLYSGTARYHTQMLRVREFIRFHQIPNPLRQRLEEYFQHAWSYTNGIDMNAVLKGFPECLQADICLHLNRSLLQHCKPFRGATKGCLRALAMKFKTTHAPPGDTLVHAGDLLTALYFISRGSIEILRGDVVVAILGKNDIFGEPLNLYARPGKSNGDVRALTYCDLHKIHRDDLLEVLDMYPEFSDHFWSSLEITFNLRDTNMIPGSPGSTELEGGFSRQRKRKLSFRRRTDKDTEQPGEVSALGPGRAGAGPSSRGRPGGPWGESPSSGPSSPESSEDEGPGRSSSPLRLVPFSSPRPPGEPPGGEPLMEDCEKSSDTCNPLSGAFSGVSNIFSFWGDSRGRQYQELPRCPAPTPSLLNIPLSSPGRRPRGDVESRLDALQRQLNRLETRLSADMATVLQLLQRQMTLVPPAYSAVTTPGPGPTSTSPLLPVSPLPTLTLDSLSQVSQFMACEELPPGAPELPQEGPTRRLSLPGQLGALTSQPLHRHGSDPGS

The term Ki denotes the equilibrium dissociation constant of an inhibitor or competing ligand from its target. Read a high Ki as a looser hold on the target. In general, IC50 refers to the concentration at which inhibition is half-maximal. On to `COc1cc2ncc3c(c2cc1-c1cn(C)nc1C)n(-c1c(F)cncc1OC)c(=O)n3C` (single isomer, unassigned) [Compound 1, 8-(1,3-Dimethyl-1H-pyrazol-4-yl)-1-(Sa)-(3-fluoro-5-methoxy-pyridin-4-yl)-7-methoxy-3-methyl-1,3-dihydro-imidazo[4,5-c]quinolin-2-one], for which the Ki in series [1] is > 30 µM. Besides, in series [2], the IC50 was ≥ 20 µM. For the same compound, the “Anti-tumor efficacy in combination with irradiation” value in series [3] is “significant dose-dependent anti-tumor responses; also recorded: strongly enhanced the efficacy of IR (irradiation) in a dose-dependent manner; also recorded: strong tumor growth inhibition”.

Values taken from US20250188080A1, “IMIDAZOLONYLQUINOLINE COMPOUNDS AND THERAPEUTIC USES THEREOF” (Merck Patent GmbH, priority 2019, published 2025).
